Test results from patent US9023386B2, “Microspheres comprising nanocapsules containing a lipophilic drug” (Yissum Research Development Company of the Hebrew …, priority 2006, dated 2015).

What was measured:
[1] = In-vitro stability of tacrolimus in rat intestinal juice (pH 6.5); assay type: in vitro ADME
Protocol: The following solutions were added sequentially to a test tube: 300 μl of freshly thawed intestinal juice, 60 μl of 0.6 M phosphate buffer, pH 6.5 (the pH of the mixture of intestinal juice) and 25 μg/ml of tacrolimus in various formulations (up to 1.5 ml). The mixtures were stirred and incubated at 37° C. over time. At given time intervals of 5, 10, 20, 30, 45, 60, 90 and 120 min, the samples were withdrawn from the incubation, mixed with 150 μl of 0.5 M hydrochloric acid and 2 ml of ethyl acetate. The resulting mixtures were stirred vigorously and centrifuged at 4000 rpm (equivalent to 3000 g) over 10 min. The extraction of tacrolimus by ethyl acetate was repeated three times to ensure total removal of the drug from the mixtures. The different ethyl acetate layers (upper layers) were transferred to clean tubes and evaporated under nitrogen to dryness. The combined residues were dissolved in 1 ml of acetonitrile, and 50 μl were injected in the HPLC under the following conditions: Mobile phase Acetonitrile 100%, Flow rate 0.5 ml/min, Wavelength—213 nm, Column—LiChrospher® 100 RP-18 (5 μm), 4/120 mm.

[2] = test system: P-gp; experiment: Caco-2 uptake study (apparent permeability); assay type: in vitro ADME; conditions: human; Caco-2, 25 μg/ml tacrolimus, Hanks buffer pH 7.4, 60 min, without verapamil
Protocol: Caco-2 monolayers (passage 73) were grown in Dulbecco's modified Eagle's medium supplemented with 10% fetal bovine serum, 1% L-glutamine, 1% nonessential amino acids, and 5% antibiotic-antimycotic solution at 37° C. in humidified air, 5% CO2 atmosphere. The culture medium was first replaced after 72 h and every 48 h thereafter. The uptake studies were conducted with monolayers between 8 to 10 days in culture. All diffusion experiments were performed over 1 h at 37° C. Prior to the experiments, the culture medium was replaced with transport medium and cell monolayers were subsequently equilibrated for 30 min at 37° C. before the uptake study. Transport medium was Hanks buffer composed of 136.89 mM NaCl, 5.36 mM KCl, 0.34 mM Na2HPO4, 0.44 mM KH2PO4, 0.41 mM MgSO4 7H2O, 19.45 mM glucose, 1.26 mM CaCl2, 0.49 mM MgCl2.6H2O, 4.17 mM NaHCO3, 10 mM HEPES, and the pH was adjusted to 7.4. […] The lysate was collected in clean tube and tacrolimus was determined by HPLC as described above. […]
The apparent permeability (Papp, cm/s) was calculated according to the following equation described by Schrickx and Fink-Gremmels (J. Schrickx and J. Fink-Gremmels. P-glycoprotein-mediated transport of oxytetracycline in the Caco-2 cell model. J. Vet Pharmacol. Therap. 30: 25-31 (2007).

[3] = cited from earlier work
[4] = immunosuppression; cited from earlier work

tacrolimus stability incubated only with PBS (Control (−)) ([1]; PBS pH 6.5, no intestinal juice, 120 min incubation): remained intact
initial tacrolimus concentration decomposed / reduced ([1]; intestinal juice with PBS pH 6.5, 37° C., 25 μg/ml tacrolimus, up to 120 min): at least 50%
Papp at 60 min, 25 μg/ml [2]: 2.05 ± 0.26 ×10⁻⁶ cm/s
SMILES: C=CC[C@@H]1/C=C(\C)C[C@H](C)C[C@H](OC)[C@H]2O[C@@](O)(C(=O)C(=O)N3CCCC[C@H]3C(=O)O[C@H](/C(C)=C/[C@@H]3CC[C@@H](O)[C@H](OC)C3)[C@H](C)[C@@H](O)CC1=O)[C@H](C)C[C@@H]2OC [tacrolimus]
oral bioavailability ([3]; in vivo, po): 10-25%
dose excreted unchanged in the urine ([3]; in vivo): Less than 1%
drug bound by erythrocytes ([3]; in vivo): 75-80%
whole blood concentrations relative to plasma concentrations ([3]; in vivo): 10- to 30 times
elimination half-life ([3]; liver transplant patients): about 12 hours
potency relative to cyclosporine [4]: 10-100 times
